Test results taken from patent US20210115104A1, “AMYLIN ANALOGUES” (Zealand Pharma A/S, priority 2015, published 2021).
*1 amine or outer side, *2 acyl side, *3 side chain or, on linkers, in order; H or OH if unused. Where a SMILES comes first, the peptide text is derived from it. Bridges are numbered along the chain shown (N, C = ends). [ ]: non-standard residue; d: D form. The star is where a group is joined. C20 diacid = O=C(O)CCCCCCCCCCCCCCCCCCC(=O)*; γGlu = O=C(O)[C@H](CCC(=O)[*:2])N[*:1]; Hyp = O=C(O)[C@@H]1C[C@@H](O)CN1; NMeI = CC[C@H](C)[C@H](NC)C(=O)O; Orn = NCCC[C@H](N)C(=O)O; Sar = CNCC(=O)O

Experiments:
[1] = Pharmacokinetic (PK) profiling in rats; type: in vivo, rat; design: CI/F (apparent clearance values): unit not given here; conditions: Sprague Dawley male rats, single sc 30 nmol/kg
Procedure: Sprague Dawley male rats were given a single subcutaneous (sc) bolus of each peptide to be tested, as specified below. 30 nmol/kg doses of compound were administered. Blood samples were drawn from the tail vein prior to dosing and at 24, 48, 72, 96 and 168 hours after dosing. Blood samples were taken from two rats at each time point, and only 2 blood samples were drawn from each rat, i.e. […] were used for each compound. The rats were euthanized immediately after the last blood sampling by concussion and cervical dislocation.
The dosing vehicle used for each test peptide was a mannitol-containing histidine buffer (pH 7.0). Plasma samples were analyzed after precipitation with ethanol by liquid chromatography mass spectrometry (LC-MS/MS). Mean plasma concentrations were used for calculation of the pharmacokinetic parameters using the non-compartmental approach in Phoenix WinNonlin 6.3.
Plasma terminal elimination half-life (t1/2) was determined as ln(2)/λz, where λz is the magnitude of the slope of the log linear regression of the log concentration versus time profile during the terminal phase. Apparent clearance (CL/F) was determined as dose/AUCinf (sc), where AUCinf is the area under the plasma concentration vs. time curve extrapolated to infinity (AUCinf=AUClast+Clast/λz, where Clast is the last observed plasma concentration).

[2] = Assessment of physical stability (Thioflavin T fibrillation); type: physicochemical; design: key: FND = fibrillation not detected; FD = fibrillation detected; conditions: 1 mg/ml, 40° C., ThT; for Fibrillation pH 4.0 (Ac): 50 mM acetate buffer pH 4.0, 96 hours; for Fibrillation pH 7.0 (His): 50 mM histidine buffer pH 7.0, 96 hours; for Fibrillation pH 7.0 (Phos.): 50 mM phosphate buffer pH 7.0, 96 hours
In short: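 Fibrillation lag-time, in hours, taken where regressions of the initial stable phase and the growth phase intersect. ThT (40 μM) fluorescence monitored at 40 °C for 96 h, 10-min reads each preceded by 300 s mixing. Peptide at 1 mg/ml in 50 mM buffers: phosphate or histidine pH 7.0, acetate pH 4.0.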

[3] = Assessment of chemical stability (RP-HPLC normalized purity); type: physicochemical; conditions: 7 days, 40° C., Table 1; for Normalized purity after 7 days, 40° C., pH 4: pH 4, 0.2 mg/ml; for Normalized purity after 7 days, 40° C., pH 6: pH 6, 0.2 mg/ml; for Normalized purity after 7 days, 40° C., pH 7.5: pH 7.5, 0.2 mg/ml; for Normalized purity after 7 days, 40° C., pH 9: pH 9, 0.2 mg/ml
In short: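 Purity after 7 days at 40° C is expressed relative to T=0 (set to 100) for each pH. Samples at 0.2 mg/ml, pH 4, 6, 7.5 or 9, analyzed by RP-HPLC with UV 220 nm on C8 (ammonium formate) or C18 (TFA) gradients.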

[4] = molecular target: T1, human calcitonin receptor (hCTR2) (Homo sapiens, UniProt P30988); test: hCTR2 cAMP assay (AlphaScreen) in COS7 cells; type: cell-based; conditions: cAMP induction, COS7 cells expressing hCTR2; Table 1; read-out: hCTR2 EC50
T1 construct: expressed in transfected cells
T1 sequence (P30988 25-474): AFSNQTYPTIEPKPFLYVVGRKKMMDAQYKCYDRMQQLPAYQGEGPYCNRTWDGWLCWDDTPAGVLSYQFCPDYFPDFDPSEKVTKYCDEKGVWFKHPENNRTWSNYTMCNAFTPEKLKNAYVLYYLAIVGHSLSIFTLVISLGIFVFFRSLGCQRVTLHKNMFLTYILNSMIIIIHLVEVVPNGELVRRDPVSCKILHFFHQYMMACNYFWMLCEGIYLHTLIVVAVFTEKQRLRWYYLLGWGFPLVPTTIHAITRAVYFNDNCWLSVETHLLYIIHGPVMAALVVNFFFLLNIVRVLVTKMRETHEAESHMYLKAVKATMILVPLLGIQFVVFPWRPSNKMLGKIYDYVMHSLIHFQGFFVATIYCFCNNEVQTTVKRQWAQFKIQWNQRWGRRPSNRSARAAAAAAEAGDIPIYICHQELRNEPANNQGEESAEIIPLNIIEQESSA
In short: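 cAMP induction, read by AlphaScreen after lysis, gives EC50 values via 4PL curve fitting. Peptides were applied at rising concentrations for 15 min at 37 °C, with IBMX and 0.1% casein in HEPES-buffered Tyrode pH 7.4, to COS7 cells (no endogenous RAMPs) stably expressing human CTR2.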

[5] = molecular target: T2, human amylin receptor 3 (hAMYR3), hCTR2 co-expressed with hRAMP3 (Homo sapiens, UniProt O60896+P30988); test: hAMYR3 cAMP assay (AlphaScreen) in COS7 cells; type: cell-based; conditions: cAMP induction, COS7 cells expressing hAMYR3; Table 1; read-out: hAMYR3 EC50
T2 construct: expressed in transfected cells
T2 sequence (P30988 25-474): T1 sequence (P30988 25-474)
T2 sequence (O60896 24-148 partner): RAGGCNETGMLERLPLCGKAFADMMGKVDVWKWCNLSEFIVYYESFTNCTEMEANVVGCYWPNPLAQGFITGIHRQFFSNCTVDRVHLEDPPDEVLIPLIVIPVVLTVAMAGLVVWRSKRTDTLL
In short: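 EC50 values derive from 4PL curve fits of cAMP (AlphaScreen) in lysates of RAMP-naive COS7 cells stably carrying hCTR2 plus hRAMP3. Peptide dilution series were applied for 15 min at 37 °C in pH 7.4 Tyrode buffer containing 100 µM IBMX and 0.1% casein.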

Structure (SMILES)	CI/F (apparent clearance values) [1]	Fibrillation pH 4.0 (Ac) [2]	Fibrillation pH 7.0 (His) [2]	Fibrillation pH 7.0 (Phos.) [2]	Normalized purity after 7 days, 40° C., pH 4 [3]	Normalized purity after 7 days, 40° C., pH 6 [3]	Normalized purity after 7 days, 40° C., pH 7.5 [3]	Normalized purity after 7 days, 40° C., pH 9 [3]	EC50 [4]	EC50 [5]
CC[C@H](C)[C@@H](C(=O)N[C@@H](CC(C)C)C(=O)N[C@@H](CO)C(=O)N[C@@H](CO)C(=O)N[C@H](C(=O)N[C@@H](CCC(=O)O)C(=O)N[C@H](C(=O)NCC(=O)N[C@@H](CO)C(=O)N[C@@H](CO)C(=O)N[C@H](C(=O)N1C[C@H](O)C[C@H]1C(N)=O)[C@@H](C)O)C(C)C)[C@@H](C)O)N(C)C(=O)[C@H](C)NC(=O)CN(C)C(=O)[C@H](Cc1ccccc1)NC(=O)[C@H](CO)NC(=O)[C@H](CO)NC(=O)[C@H](CCCNC(=N)N)NC(=O)[C@@H](NC(=O)[C@H](CC(C)C)NC(=O)[C@H](Cc1ccccc1)NC(=O)[C@H](Cc1c[nH]cn1)NC(=O)[C@H](C)NC(=O)[C@H](CC(C)C)NC(=O)[C@H](CCCNC(=N)N)NC(=O)[C@H](CCC(=O)O)NC(=O)[C@@H](NC(=O)[C@H](C)NC(=O)[C@@H]1CSSC[C@H](NC(=O)[C@H](CCCNC(=N)N)NC(=O)CC[C@H](NC(=O)CCCCCCCCCCCCCCCCCCC(=O)O)C(=O)O)C(=O)NCC(=O)N[C@@H]([C@@H](C)O)C(=O)N[C@@H](C)C(=O)N[C@@H]([C@@H](C)O)C(=O)N1)[C@@H](C)O)[C@@H](C)O [Compound 9, [19CD]-isoGlu-R-C( )-GTAT-C( )-ATERLAHFLTRSSF-Gly(Me)-A-Ile(Me)-LSSTEVGSST-Hyp-NH2] ({C20 diacid-γGlu}-RCGTATCATERLAHFLTRSSF[Sar]A[NMeI]LSSTEVGSST[Hyp]-NH2; disulfide 2-7)	0.0096	FND	FD	FD	A (A = >90%)	B (B = 70-90%)	B (B = 70-90%)	B (B = 70-90%)	0.099 nM	–
CC[C@H](C)[C@@H](C(=O)N[C@@H](CC(C)C)C(=O)N[C@@H](CO)C(=O)N[C@@H](CO)C(=O)N[C@H](C(=O)N[C@@H](CCC(=O)O)C(=O)N[C@H](C(=O)NCC(=O)N[C@@H](CO)C(=O)N[C@@H](CCCN)C(=O)N[C@H](C(=O)N1C[C@H](O)C[C@H]1C(N)=O)[C@@H](C)O)C(C)C)[C@@H](C)O)N(C)C(=O)[C@H](C)NC(=O)CN(C)C(=O)[C@H](Cc1ccccc1)NC(=O)[C@H](CO)NC(=O)[C@H](CO)NC(=O)[C@H](CCCNC(=N)N)NC(=O)[C@@H](NC(=O)[C@H](CC(C)C)NC(=O)[C@H](Cc1ccccc1)NC(=O)[C@H](Cc1c[nH]cn1)NC(=O)[C@H](C)NC(=O)[C@H](CC(C)C)NC(=O)[C@H](CCCNC(=N)N)NC(=O)[C@H](CCC(=O)O)NC(=O)[C@@H](NC(=O)[C@H](C)NC(=O)[C@@H]1CSSC[C@H](NC(=O)[C@H](CCCNC(=N)N)NC(=O)CC[C@H](NC(=O)CCCCCCCCCCCCCCCCCCC(=O)O)C(=O)O)C(=O)NCC(=O)N[C@@H]([C@@H](C)O)C(=O)N[C@@H](C)C(=O)N[C@@H]([C@@H](C)O)C(=O)N1)[C@@H](C)O)[C@@H](C)O [Compound 11, [19CD]-isoGlu-R-C( )-GTAT-C( )-ATERLAHFLTRSSF-Gly(Me)-A-Ile(Me)-LSSTEVGS-Orn-T-Hyp-NH2] ({C20 diacid-γGlu}-RCGTATCATERLAHFLTRSSF[Sar]A[NMeI]LSSTEVGS[Orn]T[Hyp]-NH2; disulfide 2-7)	0.0118	FND	FD	FD	A (A = >90%)	B (B = 70-90%)	A (A = >90%)	B (B = 70-90%)	–	0.2 nM
CC[C@H](C)[C@@H](C(=O)N[C@@H](CC(C)C)C(=O)N[C@@H](CO)C(=O)N[C@@H](CO)C(=O)N[C@H](C(=O)N[C@@H](CCC(=O)O)C(=O)N[C@H](C(=O)NCC(=O)N[C@@H](CO)C(=O)NCC(=O)N[C@H](C(=O)N1C[C@H](O)C[C@H]1C(N)=O)[C@@H](C)O)C(C)C)[C@@H](C)O)N(C)C(=O)[C@H](C)NC(=O)CN(C)C(=O)[C@H](Cc1ccccc1)NC(=O)[C@H](CO)NC(=O)[C@H](CO)NC(=O)[C@H](CCCNC(=N)N)NC(=O)[C@H](CCC(N)=O)NC(=O)[C@H](CC(C)C)NC(=O)[C@H](Cc1ccccc1)NC(=O)[C@H](Cc1c[nH]cn1)NC(=O)[C@H](C)NC(=O)[C@H](CC(C)C)NC(=O)[C@H](CCCNC(=N)N)NC(=O)[C@H](CC(=O)O)NC(=O)[C@@H](NC(=O)[C@H](C)NC(=O)[C@@H]1CSSC[C@H](NC(=O)[C@H](CCCNC(=N)N)NC(=O)CC[C@H](NC(=O)CCCCCCCCCCCCCCCCCCC(=O)O)C(=O)O)C(=O)N[C@@H](CCC(N)=O)C(=O)N[C@@H]([C@@H](C)O)C(=O)N[C@@H](C)C(=O)N[C@@H]([C@@H](C)O)C(=O)N1)[C@@H](C)O [Compound 91, [19CD]-isoGlu-R-C( )-QTAT-C( )-ATDRLAHFLQRSSF-Gly(Me)-A-Ile(Me)-LSSTEVGSGT-Hyp-NH2] ({C20 diacid-γGlu}-RCQTATCATDRLAHFLQRSSF[Sar]A[NMeI]LSSTEVGSGT[Hyp]-NH2; disulfide 2-7)	–	FND	FND	FND	A (A = >90%)	A (A = >90%)	A (A = >90%)	A (A = >90%)	0.08 nM	0.17 nM
CC[C@H](C)[C@@H](C(=O)N[C@@H](CC(C)C)C(=O)N[C@@H](CO)C(=O)N[C@@H](CO)C(=O)N[C@H](C(=O)N[C@@H](CCC(=O)O)C(=O)N[C@H](C(=O)NCC(=O)N[C@@H](CO)C(=O)N[C@@H](CC(N)=O)C(=O)N[C@H](C(=O)N1CCC[C@H]1C(N)=O)[C@@H](C)O)C(C)C)[C@@H](C)O)N(C)C(=O)[C@H](C)NC(=O)CN(C)C(=O)[C@H](Cc1ccccc1)NC(=O)[C@H](CCCNC(=N)N)NC(=O)[C@H](CCC(N)=O)NC(=O)[C@H](CC(C)C)NC(=O)[C@H](Cc1ccccc1)NC(=O)[C@H](Cc1c[nH]cn1)NC(=O)[C@H](C)NC(=O)[C@H](CC(C)C)NC(=O)[C@H](CCCNC(=N)N)NC(=O)[C@H](CCC(=O)O)NC(=O)[C@@H](NC(=O)[C@H](C)NC(=O)[C@@H]1CSSC[C@H](NC(=O)[C@H](CCCNC(=N)N)NC(=O)CC[C@H](NC(=O)CCCCCCCCCCCCCCCCCCC(=O)O)C(=O)O)C(=O)N[C@@H](CCC(N)=O)C(=O)N[C@@H]([C@@H](C)O)C(=O)N[C@@H](C)C(=O)N[C@@H]([C@@H](C)O)C(=O)N1)[C@@H](C)O [Compound 96, [19CD]-isoGlu-R-C( )-QTAT-C( )-ATERLAHFLQRF-Gly(Me)-A-Ile(Me)-LSSTEVGSNTP-NH2] ({C20 diacid-γGlu}-RCQTATCATERLAHFLQRF[Sar]A[NMeI]LSSTEVGSNTP-NH2; disulfide 2-7)	–	FND	FND	FND	A (A = >90%)	A (A = >90%)	A (A = >90%)	A (A = >90%)	0.33 nM	0.28 nM
